Data as given in patent US11071727B2, “Therapeutic targeting of proteolytic cleavage of the mixed lineage leukemia gene product (MLL1) by taspase1 using kinase inhibitors” (Northwestern University, priority 2018, dated 2021).

Experiments:
[1] = tested on: MLL1 cleavage by taspase1; assay: in vitro taspase1 cleavage assay on lysates of pretreated taspase1 KO cells; assay type: biochemical, human; settings: 293T taspase1 KO cells pretreated 30 hours with CX-4945 (3 μM) or TTP22 (10 μM), compared with DMSO control
Experimental: FIG. 5. CKII inhibitors selectively increase full-length MLL1 protein levels by decreasing the phosphorylation of MLL1 near the cleavage sites. (A) Conservation of the sequences flanking MLL1-CS2, MLL2 and TFIIA cleavage sites and phosphorylated serine and threonine residues after the cleavage sites (highlighted in red). (B) and (C) 293T cells were transfected with vector control (VT), WT, AA or DD reporter constructs of MLL1-p75 or TFIIA. Western blot was performed with anti-Flag antibody for MLL1 (p75: FL, p47: cleaved) or TFIIA (p54: FL, p47: cleaved). (D) and (E) 293T cells were transfected with WT or AA reporter constructs of MLL1-p75 or TFIIA in the presence or absence of HA-taspase1. Western blot was performed with anti-Flag antibody for MLL1 or TFIIA, or anti-HA antibody for taspase1. (F) 293T cells were infected with shRNAs against CKIIα or CKIIα′. Western blot was performed with anti-MLL1C antibody for MLL1 full-length protein levels, and CKIIα or CKIIα′ for knockdown efficiency. (G) 293T cells were treated with DMSO or 10 μM CX-4945 for 30 hours. Cells were harvested and lysed for Western blot against MLL1, MLL2 or TFIIA using β-tubulin as the loading control. […]
in vitro taspase1 cleavage assay. […] Cleavage efficiency was detected by western blot against MLL1C and TFIIA using Hsp90 as the loading control.

MLL1, MLL-AF4 = assay: Western blot of MLL1 full-length and MLL-AF4 fusion protein levels in SEM cells; assay type: cell-based, human; settings: SEM cells, 0, 5 or 10 μM, 30 hours
Experimental: (§1) FIG. 6. CKII inhibition increases genome-wide MLL occupancy and excludes SEC recruitment in MLL leukemia cells. (A) and (B) MLL1C occupancy in CX-4945 or TTP22 treated cells were shown relative to DMSO control. […] (C) Track examples of the MLL1 occupancy at the promoter regions of ELF2 and C6orf211. (D) CX-4945 inhibition of leukemia cell proliferation. Multiple MLL leukemia (orange lines) and non-MLL leukemia (blue lines) were cultured with different doses of CX-4945 for 3 days. Cell number was determined by cell counter and normalized to DMSO control. (E) SEM cells were treated with 0, 5 or 10 μM of CX-4945 for 30 hours and western blot was performed to determine the MLL1 full-length protein levels and MLL-AF4 fusion protein levels. (F) MLL-AFF1, AFF4 and ELL2 occupancies were decreased by CX-4945 treatment in SEM cells.
Cell culture. All of the cell lines were purchased from the American Type Culture Collection (Rockville, Md.). 293T, MCF7 and HCT116 cell lines were maintained in Dulbecco's modified Eagle's medium (DMEM) (Gibco, Gaithersburg, Md.) supplemented with 10% fetal bovine serum (FBS) (Gibco) at 37° with 5% CO2. SEM was maintained in IMDM with 10% FBS. MM6 was maintained in RPMI1640 supplemented with 10% FBS and non-essential amino acids. MOLM13, RS4:11, MV4-11, RL, REH, U937m SU-DHL-6 and OCI-LY1 were maintained in RPMI1640 supplemented with 10% FBS. […]

MLL1 chromatin occupancy = assay: ChIP-seq of MLL1 occupancy in 293T cells; assay type: cell-based, human; settings: relative to DMSO control
Experimental: as §1
(§2) ChIP-seq Analysis. 5×10^7 cells were used for each ChIP assay, as performed as previously described (Chen et al. 2015). Peaks were called with MACS v1.4.2 (Zhang et al. 2008) using default parameters and were annotated by the HOMER software (Heinz et al. 2010). Metaplots were generated using ngsplot (Shen et al. 2014). […] Differential occupancy of MLL1 was evaluated by edgeR, and peaks with Benjamini-Hochburg adjusted p-values less than 0.05 were considered to be differentially occupied. […]

[2] = tested on: MLL-AFF1, AFF4 and ELL2 occupancy; assay: ChIP-seq of MLL-AFF1, AFF4 and ELL2 occupancy in SEM cells; assay type: cell-based, human
Experimental: as §1, §2

O=C(O)c1ccc2c(c1)nc(Nc1cccc(Cl)c1)c1ccncc12 [CX-4945, 5-(3-chlorophenylamino)benzo[c][2,6]naphthyridine-8-carboxylic acid]
cleavage efficiency by recombinant taspase1 protein [1]: cleavage efficiency was significantly diminished
MLL1-FL protein levels (MLL1, MLL-AF4): MLL1-FL protein levels also increased
MLL-AF4 protein levels (MLL1, MLL-AF4): without altering MLL-AF4 protein levels
MLL1 occupancy (genome-wide) (MLL1 chromatin occupancy): global increase of MLL1 occupancy
genome-wide binding of MLL-AFF1, AFF4 and ELL2 [2]: decrease
